# Reference: publication PMC10033419, “Blocking NS3–NS4B interaction inhibits dengue virus in non-human primates” (Nature, 2023)
# Where two headings read alike, the source gives them in different places.
# Key:
# [1] = in vitro; details: dog
# [2] = test system: DENV-1/45AZ5; assay: NHP DENV-1 study, IgM/IgG ELISA; details: for IgG ELISA Titer / IgM ELISA Titer: Negative = 100
# [3] = in vivo; set-up: species or system rhesus macaques; details: both sexes, Indian-strain, rhesus monkey, po, 6 mg/kg
# Description: WRAIR is fully accredited by AAALAC International.
# [4] = test system: HIV-1 IIIB; assay: microbe, parasite or virus in culture; assay type: cell-based; details: Human immunodeficiency virus 1, IIIB, MAGI-CCR5
# [5] = test system: panel of 20 DENV strains; assay: DENV genotype panel (20 strains) RT-qPCR, Vero E6; assay type: cell-based, DENV-1–4; details: Dengue virus, DENV4 / genotype 3, Vero C1008, read-out: mean EC50, range
# Method: A total of 20 DENV strains, representing the available genotypes within the four DENV serotypes, were used in the in vitro genotype panel, from which 19 viruses were described previously in ref. [3] and one additional virus, DENV-1/45AZ5 (ref. [54]), was added.
# A potential toxic effect on host cells was tested in parallel, while omitting virus infection, using the MTS/PMS method (Promega) for Vero cells, or by high-content imaging for C6/36 cells, as described previously. […] RT–qPCR data were analysed using the QuantStudio 12K Flex software (v.1.2.3) or SDS v.1.2 Applied Biosystems software. Inhibition values for antiviral molecules were plotted using KaleidaGraph plotting software (v.4.03, Synergy Software).
# [6] = test system: DENV-2 RL strain; assay: Antiviral assay, viral RNA RT-qPCR, Vero cells; assay type: cell-based
# [7] = test system: DENV-2 Asian America Martinique; assay type: cell-based; details: T108I in NS4B
# [8] = both, Indian-origin, rhesus monkey, in vivo, po
smiles,measurement,setting,value
COc1cc(N[C@H](C(=O)c2c[nH]c3ccc(OC(F)(F)F)cc23)c2ccc(Cl)cc2OC)cc(S(C)(=O)=O)c1 [JNJ-1802],CC90,[1],5380 nM
same,CC50,[1]; CC50,2600 nM
same,CC50,"[1]; CC50, Mean",2630 nM
same,IgM and IgG responses,[2]; 6 mg per kg per day q.d.,undetectable
same,IgG ELISA Titer,"[2]; animal R7, Day 0",100
same,IgM ELISA Titer,"[2]; animal R7, Day 0",100
same,IgG ELISA Titer,"[2]; animal R7, Day 5",100
same,IgM ELISA Titer,"[2]; animal R7, Day 5",100
same,IgG ELISA Titer,"[2]; animal R7, Day 7",100
same,IgM ELISA Titer,"[2]; animal R7, Day 7",100
same,IgG ELISA Titer,"[2]; animal R7, Day 9",100
same,IgM ELISA Titer,"[2]; animal R7, Day 9",100
same,IgG ELISA Titer,"[2]; animal R7, Day 11",100
same,IgM ELISA Titer,"[2]; animal R7, Day 11",100
same,IgG ELISA Titer,"[2]; animal R7, Day 14",100
same,IgM ELISA Titer,"[2]; animal R7, Day 14",100
same,IgG ELISA Titer,"[2]; animal R7, Day 29",100
same,IgM ELISA Titer,"[2]; animal R7, Day 29",100
same,IgG ELISA Titer,"[2]; animal R8, Day 0",100
same,IgM ELISA Titer,"[2]; animal R8, Day 0",100
same,IgG ELISA Titer,"[2]; animal R8, Day 5",100
same,IgM ELISA Titer,"[2]; animal R8, Day 5",100
same,IgG ELISA Titer,"[2]; animal R8, Day 7",100
same,IgM ELISA Titer,"[2]; animal R8, Day 7",100
same,IgG ELISA Titer,"[2]; animal R8, Day 9",100
same,IgM ELISA Titer,"[2]; animal R8, Day 9",100
same,IgG ELISA Titer,"[2]; animal R8, Day 11",100
same,IgM ELISA Titer,"[2]; animal R8, Day 11",100
same,IgG ELISA Titer,"[2]; animal R8, Day 14",100
same,IgM ELISA Titer,"[2]; animal R8, Day 14",100
same,IgG ELISA Titer,"[2]; animal R8, Day 29",100
same,IgM ELISA Titer,"[2]; animal R8, Day 29",100
same,IgG ELISA Titer,"[2]; animal R9, Day 0",100
same,IgM ELISA Titer,"[2]; animal R9, Day 0",100
same,IgG ELISA Titer,"[2]; animal R9, Day 5",100
same,IgM ELISA Titer,"[2]; animal R9, Day 5",100
same,IgG ELISA Titer,"[2]; animal R9, Day 7",100
same,IgM ELISA Titer,"[2]; animal R9, Day 7",100
same,IgG ELISA Titer,"[2]; animal R9, Day 9",100
same,IgM ELISA Titer,"[2]; animal R9, Day 9",100
same,IgG ELISA Titer,"[2]; animal R9, Day 11",100
same,IgM ELISA Titer,"[2]; animal R9, Day 11",100
same,IgG ELISA Titer,"[2]; animal R9, Day 14",100
same,IgM ELISA Titer,"[2]; animal R9, Day 14",100
same,IgG ELISA Titer,"[2]; animal R9, Day 29",100
same,IgM ELISA Titer,"[2]; animal R9, Day 29",100
same,IgG ELISA Titer,"[2]; animal R10, Day 0",100
same,IgM ELISA Titer,"[2]; animal R10, Day 0",100
same,IgG ELISA Titer,"[2]; animal R10, Day 5",100
same,IgM ELISA Titer,"[2]; animal R10, Day 5",100
same,IgG ELISA Titer,"[2]; animal R10, Day 7",100
same,IgM ELISA Titer,"[2]; animal R10, Day 7",100
same,IgG ELISA Titer,"[2]; animal R10, Day 9",100
same,IgM ELISA Titer,"[2]; animal R10, Day 9",100
same,IgG ELISA Titer,"[2]; animal R10, Day 11",100
same,IgM ELISA Titer,"[2]; animal R10, Day 11",100
same,IgG ELISA Titer,"[2]; animal R10, Day 14",100
same,IgM ELISA Titer,"[2]; animal R10, Day 14",100
same,IgG ELISA Titer,"[2]; animal R10, Day 29",100
same,IgM ELISA Titer,"[2]; animal R10, Day 29",100
same,IgG ELISA Titer,"[2]; animal R11, Day 0",100
same,IgM ELISA Titer,"[2]; animal R11, Day 0",100
same,IgG ELISA Titer,"[2]; animal R11, Day 5",100
same,IgM ELISA Titer,"[2]; animal R11, Day 5",100
same,IgG ELISA Titer,"[2]; animal R11, Day 7",100
same,IgM ELISA Titer,"[2]; animal R11, Day 7",100
same,IgG ELISA Titer,"[2]; animal R11, Day 9",100
same,IgM ELISA Titer,"[2]; animal R11, Day 9",100
same,IgG ELISA Titer,"[2]; animal R11, Day 11",100
same,IgM ELISA Titer,"[2]; animal R11, Day 11",100
same,IgG ELISA Titer,"[2]; animal R11, Day 14",100
same,IgM ELISA Titer,"[2]; animal R11, Day 14",100
same,IgG ELISA Titer,"[2]; animal R11, Day 29",100
same,IgM ELISA Titer,"[2]; animal R11, Day 29",100
same,IgG ELISA Titer,"[2]; animal R12, Day 0",100
same,IgM ELISA Titer,"[2]; animal R12, Day 0",100
same,IgG ELISA Titer,"[2]; animal R12, Day 5",100
same,IgM ELISA Titer,"[2]; animal R12, Day 5",100
same,IgG ELISA Titer,"[2]; animal R12, Day 7",100
same,IgM ELISA Titer,"[2]; animal R12, Day 7",100
same,IgG ELISA Titer,"[2]; animal R12, Day 9",100
same,IgM ELISA Titer,"[2]; animal R12, Day 9",100
same,IgG ELISA Titer,"[2]; animal R12, Day 11",100
same,IgM ELISA Titer,"[2]; animal R12, Day 11",100
same,IgG ELISA Titer,"[2]; animal R12, Day 14",100
same,IgM ELISA Titer,"[2]; animal R12, Day 14",100
same,IgG ELISA Titer,"[2]; animal R12, Day 29",100
same,IgM ELISA Titer,"[2]; animal R12, Day 29",100
same,Tmax,[3],8 h
same,EC50,[4],1600 nM
same,EC50,[5],0.04 to 1.8 nM
same,EC90,"[6]; Dengue virus, DENV2, Vero, Vero",0.275 ± 0.081 nM
same,EC50,"[6]; Dengue virus, DENV2, Vero, Vero cells, DENV-2RL, EXP1-EXP3, read-out: EC50, single experiments",0.041 nM
same,EC90,"[6]; Dengue virus, DENV2, Vero, Vero cells, DENV-2RL, EXP1-EXP3, read-out: EC90, single experiments",0.19 nM
same,EC50,"[6]; Dengue virus, DENV2, Vero, Vero cells, DENV-2RL, median, read-out: EC50 MEDIAN",0.068 nM
same,EC90,"[6]; Dengue virus, DENV2, Vero, Vero cells, DENV-2RL, median, read-out: EC90 MEDIAN",0.29 nM
same,EC50,"[6]; Dengue virus, DENV2, Vero, Vero, read-out: EC50",0.062 ± 0.019 nM
same,EC50,"[6]; Vero cells, DENV-2RL, EXP1-EXP3, read-out: EC50, single experiments",0.077 nM
same,EC90,"[6]; Vero cells, DENV-2RL, EXP1-EXP3, read-out: EC90, single experiments",0.35 nM
same,EC50,[7],0.8 ± 0.7 nM
same,EC90,[7],1.88 ± 1.37 nM
same,Tmax,[8]; 0.01 mg/kg,24 h
same,Cmax,[8]; 0.18 mg/kg,25.3 ± 6.7 ng/mL
same,Tmax,[8]; 3 mg/kg,up to 24 h
